Source: patent publication US9662362B2, “Composition and methods for clotting blood” (BYZMED LLC, priority 2009, dated 2017)

Tested on: nose bleeding
Assay: Nose bleeding after abrasion of the nasal passage, checked by blowing nose and dabbing with tissue
Type: in vivo
Conditions: visual check
Excerpt: Nose bleeding was caused by creating an abrasion to the nasal passage of a subject by use of a cotton swab irritating the nasal passage. The subject then blew their nose vigorously. The first test was to create an abrasion and pinching the nostril with no application of any product. Bleeding was checked at multiple time points, including the after 30 seconds, 60 seconds and 90 seconds by blowing ones nose 3 times and dabbing the area with a tissue to see if there was continued perfuse bleeding. […] After 90 seconds, the first test was then concluded. Next, the effect of glycerin on nose bleeding was determined. Glycerin was applied to the nasal passage after bleeding had started. Bleeding was checked at multiple time points, including the after 30 seconds, 60 seconds and 90 seconds by blowing ones nose 3 times and dabbing the area with a tissue to see if there was continued perfuse bleeding. […] After 90 seconds, the second test was then concluded. The effect of the disclosed clotting agent that included the active ingredients of […] betonica, achillea millefolium, marrubium vulgare, and urtica dioica application on nose bleeding was then determined. Bleeding was checked at multiple time points, including after 30 seconds, 60 seconds and 90 seconds by the subject blowing their nose 3 times and dabbing the area with a tissue to see if there was continued perfuse bleeding. […] After 90 seconds, there was no bleeding in the nasal passage. This part of the test was then concluded.

Measured: bleeding in the nasal passage

OCC(O)CO [Glycerin]
bleeding continued: after 30 seconds, applied to nasal passage after bleeding had started | after 60 seconds (1 minute) | after 90 seconds
